Three compounds from patent US4946779A, “Pseudo-aminosugars, their production and use” (Takeda Chemical Industries, Ltd., priority 1981, dated 1990) can be followed below.

The test system of one data set is rats. In words: Toxicity, LD50 in rats. It counts as in vivo.
For data set [1], the target named is maltase prepared from porcine intestinal mucosa. The data set can be described thus: maltase inhibitory activity, maltose as substrate. The conditions noted are these: substrate 0.05 M maltose, read-out: IC50 (M), concentration of 50% inhibition. It counts as biochemical. The protocol: (§1) The inhibitory activities of the compounds of this invention against α-glucosidase (yeast, type I, produced by Sigma Chemical Co.,U.S.A.)as well as maltase and saccharase prepared from porcine intestinal mucosa (prepared in accordance with the procedure as described by B. Borgstroom and A. Dahlgvist in Acta Chem. Scand.; 12, 1997-2006, (1958)), when maltose and sucrose are used as a substrate, are determined by adding to 0.25 ml of a solution of an enzyme prepared by diluting suitably with 0.02 M phosphate buffer (pH 6.8) 0.5 ml of a solution of an inhibitory substance to be tested in the same buffer and 0.25 ml of 0.05 M maltose or 0.05 M sucrose as the substrate in the same buffer allowing the mixture to react at 37° C. for 10 minutes, then adding 3 ml of Glucose B-Test Reagent (a glucose oxidase reagent for measurement of glucose, produced by Wako Pure Chemical Co., Japan), further warming the mixture at 37° C. for 20 minutes and measuring the absorbance of the reaction solution at 505 nm.

The next data set can be described thus: Solubility in solvents. It counts as physicochemical.
For data set [2], the target named is T1, saccharase prepared from porcine intestinal mucosa (Sus scrofa, UniProt P56729).
T1 construct: sucrase is the C-terminal subunit cleaved from the SI precursor, paired with isomaltase
In words: saccharase inhibitory activity, sucrose as substrate. It counts as biochemical. Particulars: substrate 0.05 M sucrose, read-out: IC50 (M), concentration of 50% inhibition. The protocol:
as §1

[3] abbreviates: in ethanol, ethyl acetate, chloroform, acetone.
Setting [4] is: in water, dimethylsulfoxide, methanol.

T1 sequence (P56729 with tags, fused parts or gaps): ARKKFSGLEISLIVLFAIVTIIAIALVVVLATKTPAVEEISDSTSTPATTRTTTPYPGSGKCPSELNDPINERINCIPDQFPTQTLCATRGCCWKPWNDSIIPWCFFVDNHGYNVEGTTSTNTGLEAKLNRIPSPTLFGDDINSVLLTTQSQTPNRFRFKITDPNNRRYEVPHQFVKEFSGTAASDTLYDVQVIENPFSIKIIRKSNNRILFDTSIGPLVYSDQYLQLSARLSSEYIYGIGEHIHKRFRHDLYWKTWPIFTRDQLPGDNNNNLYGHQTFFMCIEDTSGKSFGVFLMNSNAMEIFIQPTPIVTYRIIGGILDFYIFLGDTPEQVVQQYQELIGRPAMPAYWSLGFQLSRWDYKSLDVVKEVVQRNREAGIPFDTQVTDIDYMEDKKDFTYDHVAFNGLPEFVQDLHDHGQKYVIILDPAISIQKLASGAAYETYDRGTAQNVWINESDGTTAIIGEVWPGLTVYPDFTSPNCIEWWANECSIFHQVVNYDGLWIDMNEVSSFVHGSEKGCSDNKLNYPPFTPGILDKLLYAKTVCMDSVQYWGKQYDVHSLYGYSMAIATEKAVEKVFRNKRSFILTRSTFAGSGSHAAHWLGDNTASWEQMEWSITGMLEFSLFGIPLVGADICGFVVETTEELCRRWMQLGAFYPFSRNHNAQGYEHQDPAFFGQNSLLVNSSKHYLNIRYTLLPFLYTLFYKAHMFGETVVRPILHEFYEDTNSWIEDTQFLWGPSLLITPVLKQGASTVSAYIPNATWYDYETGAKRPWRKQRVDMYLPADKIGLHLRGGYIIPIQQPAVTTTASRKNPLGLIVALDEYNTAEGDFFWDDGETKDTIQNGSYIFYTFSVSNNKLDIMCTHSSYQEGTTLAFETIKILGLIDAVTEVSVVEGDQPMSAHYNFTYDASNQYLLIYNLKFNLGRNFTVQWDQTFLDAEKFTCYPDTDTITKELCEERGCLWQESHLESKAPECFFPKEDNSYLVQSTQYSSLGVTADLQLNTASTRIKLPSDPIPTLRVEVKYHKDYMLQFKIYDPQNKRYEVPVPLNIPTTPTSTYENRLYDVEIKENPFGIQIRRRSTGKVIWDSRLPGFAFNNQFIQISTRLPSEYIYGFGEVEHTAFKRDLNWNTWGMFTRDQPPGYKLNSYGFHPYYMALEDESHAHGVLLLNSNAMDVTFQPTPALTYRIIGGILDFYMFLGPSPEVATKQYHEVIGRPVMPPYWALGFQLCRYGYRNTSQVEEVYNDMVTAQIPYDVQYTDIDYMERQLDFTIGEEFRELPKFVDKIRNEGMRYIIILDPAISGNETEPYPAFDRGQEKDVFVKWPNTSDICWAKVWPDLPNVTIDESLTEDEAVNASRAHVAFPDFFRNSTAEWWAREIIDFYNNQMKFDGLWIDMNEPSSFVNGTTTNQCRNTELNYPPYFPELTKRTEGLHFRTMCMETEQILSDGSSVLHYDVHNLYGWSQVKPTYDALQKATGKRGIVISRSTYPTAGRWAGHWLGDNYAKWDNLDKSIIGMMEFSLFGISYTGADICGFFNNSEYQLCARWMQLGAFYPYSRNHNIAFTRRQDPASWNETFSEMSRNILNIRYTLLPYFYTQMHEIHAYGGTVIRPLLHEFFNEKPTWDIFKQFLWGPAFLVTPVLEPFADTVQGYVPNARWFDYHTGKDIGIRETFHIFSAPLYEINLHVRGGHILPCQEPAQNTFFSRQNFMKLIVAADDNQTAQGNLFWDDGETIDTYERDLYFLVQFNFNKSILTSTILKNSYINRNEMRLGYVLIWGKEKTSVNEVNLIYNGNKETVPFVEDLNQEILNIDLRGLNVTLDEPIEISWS

As to `NC1CC(O)(CO)C(O)C(O)C1O` (centres unmarked) [compound [I], 5-amino-1-hydroxymethyl-1,2,3,4-cyclohexanetetrol], the LD50 in the data set with rats is at least 500 mg.

For `N[C@H]1C[C@](O)(CO)C(O)C(O)C1O` (some centres unmarked) [epivaliolamine], the IC50 in data set [1] was found to be 0.00014 M. Moreover, the Solubility result in “Solubility in solvents” (setting [3]) was “Sparing soluble or insoluble”; in “Solubility in solvents” (setting [4]) it was “Soluble”.

As to `N[C@H]1C[C@](O)(CO)[C@@H](O)[C@H](O)[C@H]1O` [valiolamine, 1L(1S)-(1(OH), 2,4,5/1(CH2 OH),3)-5-amino-1-hydroxymethyl-1,2,3,4-cyclohexanetetrol], the IC50 in data set [1] turned out to be 2.2e-06 M; in data set [2] it was 4.9e-08 M. Besides, the Solubility result is given as “Sparingly soluble or insoluble” in the data set “Solubility in solvents” (setting [3]) and “Soluble” in the data set “Solubility in solvents” (setting [4]).
